Numbers after ± are expanded uncertainties.
Experiment: mn = molality of the nth substance listed, in mol/kg
Details: Liquid, Constant-volume piezometry

SMILES: [Br-].[NH4+] [ammonium bromide] + N
- mass density (333.15 K, 30000 kPa, m1 = 4.381): 807.1 ± 3.2 kg/m3
- mass density (333.15 K, 30000 kPa, m1 = 7.359): 915.6 ± 3.7 kg/m3
- mass density (333.15 K, 30000 kPa, m1 = 10.35): 1006.9 ± 4 kg/m3
- mass density (333.15 K, 30000 kPa, m1 = 15.17): 1104 ± 4.4 kg/m3
- mass density (343.15 K, 10000 kPa, m1 = 1.143): 612.8 ± 2.5 kg/m3
- mass density (343.15 K, 10000 kPa, m1 = 2.601): 693.7 ± 2.8 kg/m3
- mass density (343.15 K, 10000 kPa, m1 = 4.381): 778.3 ± 3.1 kg/m3
- mass density (343.15 K, 10000 kPa, m1 = 7.359): 891.2 ± 3.6 kg/m3
- mass density (343.15 K, 10000 kPa, m1 = 10.35): 983.9 ± 3.9 kg/m3
- mass density (343.15 K, 10000 kPa, m1 = 15.17): 1086.6 ± 4.4 kg/m3
- mass density (343.15 K, 15000 kPa, m1 = 1.143): 618.5 ± 2.5 kg/m3
- mass density (343.15 K, 15000 kPa, m1 = 2.601): 698.1 ± 2.8 kg/m3
- mass density (343.15 K, 15000 kPa, m1 = 4.381): 782.6 ± 3.1 kg/m3
- mass density (343.15 K, 15000 kPa, m1 = 7.359): 894.7 ± 3.6 kg/m3
- mass density (343.15 K, 15000 kPa, m1 = 10.35): 987.4 ± 4 kg/m3
- mass density (343.15 K, 15000 kPa, m1 = 15.17): 1089.1 ± 4.4 kg/m3
- mass density (343.15 K, 20000 kPa, m1 = 1.143): 624.1 ± 2.5 kg/m3
- mass density (343.15 K, 20000 kPa, m1 = 2.601): 702.6 ± 2.8 kg/m3
- mass density (343.15 K, 20000 kPa, m1 = 4.381): 786.7 ± 3.2 kg/m3
- mass density (343.15 K, 20000 kPa, m1 = 7.359): 898.2 ± 3.6 kg/m3
- mass density (343.15 K, 20000 kPa, m1 = 10.35): 991.3 ± 4 kg/m3
- mass density (343.15 K, 20000 kPa, m1 = 15.17): 1091.2 ± 4.4 kg/m3
- mass density (343.15 K, 25000 kPa, m1 = 1.143): 629.9 ± 2.5 kg/m3
- mass density (343.15 K, 25000 kPa, m1 = 2.601): 707.2 ± 2.8 kg/m3
- mass density (343.15 K, 25000 kPa, m1 = 4.381): 790.7 ± 3.2 kg/m3
- mass density (343.15 K, 25000 kPa, m1 = 7.359): 901.6 ± 3.6 kg/m3
- mass density (343.15 K, 25000 kPa, m1 = 10.35): 993.6 ± 4 kg/m3
- mass density (343.15 K, 25000 kPa, m1 = 15.17): 1093.3 ± 4.4 kg/m3
- mass density (343.15 K, 30000 kPa, m1 = 1.143): 635.4 ± 2.6 kg/m3
- mass density (343.15 K, 30000 kPa, m1 = 2.601): 711.7 ± 2.9 kg/m3
- mass density (343.15 K, 30000 kPa, m1 = 4.381): 794.2 ± 3.2 kg/m3
- mass density (343.15 K, 30000 kPa, m1 = 7.359): 904.9 ± 3.6 kg/m3
- mass density (343.15 K, 30000 kPa, m1 = 10.35): 995.8 ± 4 kg/m3
- mass density (343.15 K, 30000 kPa, m1 = 15.17): 1095.4 ± 4.4 kg/m3
- mass density (353.15 K, 10000 kPa, m1 = 1.143): 594.5 ± 2.4 kg/m3
- mass density (353.15 K, 10000 kPa, m1 = 2.601): 676.6 ± 2.7 kg/m3
- mass density (353.15 K, 10000 kPa, m1 = 4.381): 765.5 ± 3.1 kg/m3
- mass density (353.15 K, 10000 kPa, m1 = 7.359): 878.6 ± 3.5 kg/m3
- mass density (353.15 K, 10000 kPa, m1 = 10.35): 973 ± 3.9 kg/m3
- mass density (353.15 K, 15000 kPa, m1 = 1.143): 601.3 ± 2.4 kg/m3
- mass density (353.15 K, 15000 kPa, m1 = 2.601): 681.9 ± 2.7 kg/m3
- mass density (353.15 K, 15000 kPa, m1 = 4.381): 769.6 ± 3.1 kg/m3
- mass density (353.15 K, 15000 kPa, m1 = 7.359): 882.5 ± 3.5 kg/m3
- mass density (353.15 K, 15000 kPa, m1 = 10.35): 976.5 ± 3.9 kg/m3
- mass density (353.15 K, 20000 kPa, m1 = 1.143): 607.9 ± 2.4 kg/m3
- mass density (353.15 K, 20000 kPa, m1 = 2.601): 687.1 ± 2.8 kg/m3
- mass density (353.15 K, 20000 kPa, m1 = 4.381): 773.8 ± 3.1 kg/m3
- mass density (353.15 K, 20000 kPa, m1 = 7.359): 886.2 ± 3.6 kg/m3
- mass density (353.15 K, 20000 kPa, m1 = 10.35): 979.8 ± 3.9 kg/m3
- mass density (353.15 K, 25000 kPa, m1 = 1.143): 614.6 ± 2.5 kg/m3
- mass density (353.15 K, 25000 kPa, m1 = 2.601): 692 ± 2.8 kg/m3
- mass density (353.15 K, 25000 kPa, m1 = 4.381): 778.1 ± 3.1 kg/m3
- mass density (353.15 K, 25000 kPa, m1 = 7.359): 889.7 ± 3.6 kg/m3
- mass density (353.15 K, 25000 kPa, m1 = 10.35): 983 ± 4 kg/m3
- mass density (353.15 K, 30000 kPa, m1 = 1.143): 621.2 ± 2.5 kg/m3
- mass density (353.15 K, 30000 kPa, m1 = 2.601): 697 ± 2.8 kg/m3
- mass density (353.15 K, 30000 kPa, m1 = 4.381): 782.2 ± 3.1 kg/m3
- mass density (353.15 K, 30000 kPa, m1 = 7.359): 893.2 ± 3.6 kg/m3
- mass density (353.15 K, 30000 kPa, m1 = 10.35): 986.6 ± 4 kg/m3
- mass density (363.15 K, 10000 kPa, m1 = 1.143): 576 ± 2.3 kg/m3
- mass density (363.15 K, 10000 kPa, m1 = 2.601): 659.3 ± 2.6 kg/m3
- mass density (363.15 K, 10000 kPa, m1 = 4.381): 748.7 ± 3 kg/m3
- mass density (363.15 K, 10000 kPa, m1 = 7.359): 866.4 ± 3.5 kg/m3
- mass density (363.15 K, 10000 kPa, m1 = 10.35): 961.1 ± 3.9 kg/m3
- mass density (363.15 K, 10000 kPa, m1 = 15.17): 1067.8 ± 4.3 kg/m3
- mass density (363.15 K, 15000 kPa, m1 = 1.143): 583.7 ± 2.3 kg/m3
- mass density (363.15 K, 15000 kPa, m1 = 2.601): 665.4 ± 2.7 kg/m3
- mass density (363.15 K, 15000 kPa, m1 = 4.381): 754.3 ± 3 kg/m3
- mass density (363.15 K, 15000 kPa, m1 = 7.359): 870.2 ± 3.5 kg/m3
- mass density (363.15 K, 15000 kPa, m1 = 10.35): 965.6 ± 3.9 kg/m3
- mass density (363.15 K, 15000 kPa, m1 = 15.17): 1070.1 ± 4.3 kg/m3
- mass density (363.15 K, 20000 kPa, m1 = 1.143): 590.9 ± 2.4 kg/m3
- mass density (363.15 K, 20000 kPa, m1 = 2.601): 671.2 ± 2.7 kg/m3
- mass density (363.15 K, 20000 kPa, m1 = 4.381): 759.5 ± 3.1 kg/m3
- mass density (363.15 K, 20000 kPa, m1 = 7.359): 873.8 ± 3.5 kg/m3
- mass density (363.15 K, 20000 kPa, m1 = 10.35): 969 ± 3.9 kg/m3
- mass density (363.15 K, 20000 kPa, m1 = 15.17): 1072.4 ± 4.3 kg/m3
- mass density (363.15 K, 25000 kPa, m1 = 1.143): 598.2 ± 2.4 kg/m3
- mass density (363.15 K, 25000 kPa, m1 = 2.601): 677.1 ± 2.7 kg/m3
- mass density (363.15 K, 25000 kPa, m1 = 4.381): 764.4 ± 3.1 kg/m3
- mass density (363.15 K, 25000 kPa, m1 = 7.359): 877.4 ± 3.5 kg/m3
- mass density (363.15 K, 25000 kPa, m1 = 10.35): 972.5 ± 3.9 kg/m3
- mass density (363.15 K, 25000 kPa, m1 = 15.17): 1074.8 ± 4.3 kg/m3
- mass density (363.15 K, 30000 kPa, m1 = 1.143): 605.2 ± 2.4 kg/m3
- mass density (363.15 K, 30000 kPa, m1 = 2.601): 682.6 ± 2.7 kg/m3
- mass density (363.15 K, 30000 kPa, m1 = 4.381): 769 ± 3.1 kg/m3
- mass density (363.15 K, 30000 kPa, m1 = 7.359): 881.3 ± 3.5 kg/m3
- mass density (363.15 K, 30000 kPa, m1 = 10.35): 975.7 ± 3.9 kg/m3
- mass density (363.15 K, 30000 kPa, m1 = 15.17): 1076.8 ± 4.3 kg/m3
- mass density (373.15 K, 10000 kPa, m1 = 4.381): 737.7 ± 3 kg/m3
- mass density (373.15 K, 10000 kPa, m1 = 7.359): 854.6 ± 3.4 kg/m3
- mass density (373.15 K, 10000 kPa, m1 = 10.35): 950.1 ± 3.8 kg/m3
- mass density (373.15 K, 10000 kPa, m1 = 15.17): 1057.7 ± 4.3 kg/m3
- mass density (373.15 K, 15000 kPa, m1 = 1.143): 569.5 ± 2.3 kg/m3
- mass density (373.15 K, 15000 kPa, m1 = 2.601): 652.4 ± 2.6 kg/m3
- mass density (373.15 K, 15000 kPa, m1 = 4.381): 742.9 ± 3 kg/m3
- mass density (373.15 K, 15000 kPa, m1 = 7.359): 858.5 ± 3.5 kg/m3
- mass density (373.15 K, 15000 kPa, m1 = 10.35): 954.3 ± 3.8 kg/m3
- mass density (373.15 K, 15000 kPa, m1 = 15.17): 1060.3 ± 4.3 kg/m3
- mass density (373.15 K, 20000 kPa, m1 = 1.143): 577.4 ± 2.3 kg/m3
- mass density (373.15 K, 20000 kPa, m1 = 2.601): 658.4 ± 2.6 kg/m3
- mass density (373.15 K, 20000 kPa, m1 = 4.381): 748 ± 3 kg/m3
- mass density (373.15 K, 20000 kPa, m1 = 7.359): 862.2 ± 3.5 kg/m3
- mass density (373.15 K, 20000 kPa, m1 = 10.35): 958 ± 3.9 kg/m3
- mass density (373.15 K, 20000 kPa, m1 = 15.17): 1062.6 ± 4.3 kg/m3
- mass density (373.15 K, 25000 kPa, m1 = 1.143): 585.2 ± 2.3 kg/m3
- mass density (373.15 K, 25000 kPa, m1 = 2.601): 664.3 ± 2.7 kg/m3
- mass density (373.15 K, 25000 kPa, m1 = 4.381): 752.9 ± 3 kg/m3
- mass density (373.15 K, 25000 kPa, m1 = 7.359): 865.9 ± 3.5 kg/m3
- mass density (373.15 K, 25000 kPa, m1 = 10.35): 961.3 ± 3.9 kg/m3
- mass density (373.15 K, 25000 kPa, m1 = 15.17): 1065.1 ± 4.3 kg/m3
- mass density (373.15 K, 30000 kPa, m1 = 1.143): 592.7 ± 2.4 kg/m3
- mass density (373.15 K, 30000 kPa, m1 = 2.601): 670 ± 2.7 kg/m3
- mass density (373.15 K, 30000 kPa, m1 = 4.381): 757.6 ± 3 kg/m3
- mass density (373.15 K, 30000 kPa, m1 = 7.359): 870 ± 3.5 kg/m3
- mass density (373.15 K, 30000 kPa, m1 = 10.35): 964.7 ± 3.9 kg/m3
- mass density (373.15 K, 30000 kPa, m1 = 15.17): 1067.1 ± 4.3 kg/m3
